For one series, the system named is MDCK-hOCT1 cells. The series is described as follows: MTT drug sensitivity assay in MDCK-hOCT1 cells. It counts as cell-based, canine. How it is done:
(§1) Cytotoxicity of the platinum-based compounds was measured by MTT (thiazolyl blue tetrazolium bromide) assay. Cells were seeded in 100 μl of the culture medium without any antibiotics in 96-well plates at a predetermined cell density. For HEK 293 cells, poly-D-lysine coated plates were used. […] For the OCT inhibitor studies, the inhibitors (i.e., disopyramide or cimetidine) were added to the medium at a specified concentration immediately before the addition of the platinum-based compounds. After incubation for a specified time period, the drug-containing medium was replaced with fresh, drug-free medium and the incubation was continued for a total of 72 hours (start from the addition of platinum-based compounds). Then, the MTT assay was performed similarly as described in Alley et al., Cancer Res., 48:589-601 (1988). […] The maximal cell growth was the cell growth in the medium without any platinum-based compounds; C is the concentration of the platinum-based compound, and γ is the slope factor.
(§2) Briefly, the cells were seeded in 96-well plates at a density of 5,000 cells/well for the transfected MDCK cells or 12,000 cells/well for the transfected HEK 293 cells. The platinum-based drugs were added on the following day. After the specified time periods of drug exposure, the drug-containing medium was replaced with fresh, drug-free medium, and the incubation was continued for a total of 72 hours (start from the time when the drug was added). After incubation, the cell growth was determined by an MTT assay. Data are expressed as mean±SD from 3 to 6 independent experiments with each performed in quadruplicate. The resistance factor (RF) was defined as the ratio of the mean IC50 value in the MOCK cells to that in the OCT-transfected cells.
Briefly, MDCK cells were seeded at a density of 5,000 cells/well in 96-well plates and exposed to the test compounds for 7 hours on the following day. After incubation for a total of 72 hours, the cell growth was determined by an MTT assay. The data for carboplatin was taken from Table 1 and was not determined simultaneously with the other compounds. The resistance factor (RF) was defined as the ratio of the mean IC50 value in MDCK-MOCK cells to that in MDCK-hOCT1 cells. Data are expressed as mean±SD from six measurements, and each measurement was performed in quadruplicate.
In general terms: Tetrazolium dyes change colour on reduction, which living cells bring about.

Another series concerns HEK-hOCT3 cells. The series is described as follows: MTT drug sensitivity assay in HEK-hOCT3 cells. It counts as cell-based, human. The procedure: as §1, §2
A further series deals with DLD. The series is described as follows: MTT drug sensitivity, colon cancer cell line DLD. The series is classed as cell-based, human. The procedure: as §1
(§3) The cell seeding density was 6,000-, 8,000-, 6,000-, 15,000-12,000- and 4,000 cells/well for HCT116, HT29, RKO, SW620, LS180, and DLD cells, respectively. When cimetidine (1.5 mM) was used, it was added to the wells immediately before the addition of the platinum-based drugs. The resistance factor (RF) was defined as the ratio of the mean IC50 value in the presence to that in the absence of cimetidine. Data are expressed as mean±SD from six measurements, and each measurement was performed in quadruplicate.

For another series, the system named is HCT116. The series is described as follows: MTT drug sensitivity, colon cancer cell line HCT116. The series is classed as cell-based, human. The procedure: as §1, §3
Series [1] concerns HEK-MOCK cells. The series is described as follows: MTT drug sensitivity assay in HEK-MOCK cells (control of HEK-hOCT2). The series is classed as cell-based, human. The procedure: Cytotoxicity of the platinum-based compounds was measured by MTT (thiazolyl blue tetrazolium bromide) assay. Cells were seeded in 100 μl of the culture medium without any antibiotics in 96-well plates at a predetermined cell density. For HEK 293 cells, poly-D-lysine coated plates were used. After overnight incubation, the platinum-based compounds were then added to the culture medium to give the indicated final concentrations. For the OCT inhibitor studies, the inhibitors (i.e., disopyramide or cimetidine) were added to the medium at a specified concentration immediately before the addition of the platinum-based compounds. After incubation for a specified time period, the drug-containing medium was replaced with fresh, drug-free medium and the incubation was continued for a total of 72 hours (start from the addition of platinum-based compounds). Then, the MTT assay was performed similarly as described in Alley et al., Cancer Res., 48:589-601 (1988). […] The maximal cell growth was the cell growth in the medium without any platinum-based compounds; C is the concentration of the platinum-based compound, and γ is the slope factor.
as §2

Series [2] relates to HEK-MOCK cells. The series is described as follows: Cellular accumulation of platinum in HEK-MOCK cells (ICP-MS). The series is classed as in vitro ADME, human. The note with it: cimetidine 1.5 mM. How it is done:
(§4) For the inhibitor studies, the incubation medium also contained disopyramide (150 μM). […] For the inhibitor studies, the incubation medium also contained cimetidine (1.5 mM). […] After drug exposure, the cells were washed with ice-cold PBS three times and harvested by scraping and centrifugation. The cell-associated platinum was determined by ICP-MS and normalized for protein content. Data are expressed as mean±SD from a single experiment performed in triplicate. Experiments were replicated for OCT1 and OCT2, and similar results were obtained.
The cellular accumulation of platinum was determined as described in Holzer et al., Mol. Pharmacol., 66:817-823 (2004) with some modifications. Briefly, the cells were grown in 100 mm×20 mm dishes in the culture medium without any antibiotics to over 90% confluence. For HEK 293 cells, poly-D-lysine coated dishes were used. For platinum accumulation, the cells were incubated in the culture medium containing the indicated concentrations of the platinum compounds at 37° C. in 5% CO2 for 2 hr unless specified. […] The platinum content was measured by inductively plasma coupled mass spectrometry (ICP-MS) in the Analytical Facility at the University of California at Santa Cruz (Santa Cruz, Calif.). […]

In the next series the test system is HEK-hOCT2 cells. The series is described as follows: Cellular accumulation of platinum in HEK-hOCT2 cells (ICP-MS). It counts as in vitro ADME, human. The note with it: 2-hr exposure. The procedure:
as §4
The cellular accumulation of platinum was determined as described in Holzer et al., Mol. Pharmacol., 66:817-823 (2004) with some modifications. Briefly, the cells were grown in 100 mm×20 mm dishes in the culture medium without any antibiotics to over 90% confluence. For HEK 293 cells, poly-D-lysine coated dishes were used. For platinum accumulation, the cells were incubated in the culture medium containing the indicated concentrations of the platinum compounds at 37° C. in 5% CO2 for 2 hr unless specified. After incubation, the dishes were immediately placed on ice and the cells were washed with 6 ml of ice-cold PBS for three times and collected with a rubber policeman. The cell pellets were obtained by centrifugation at 400×g and at 4° C. for 15 min. For the OCT inhibitor studies, the incubation medium also contained the indicated inhibitor (i.e., disopyramide or cimetidine) in addition to the platinum-based compounds. The resulting cell pellets were then dissolved into 200 μl of 70% nitric acid at 65° C. for at least 2.5 hours, and then distilled water containing 10 ppb of iridium (Sigma) and 0.1% Triton X-100 was added to the samples to dilute nitric acid to 7%. The platinum content was measured by inductively plasma coupled mass spectrometry (ICP-MS) in the Analytical Facility at the University of California at Santa Cruz (Santa Cruz, Calif.). Cell lysates from a set of identical cultures were used for BCA protein assay.

Like-named read-outs stand apart in the source and are kept apart here.

Take `O=C1[O][Pt]2([NH][C@@H]3CCCC[C@H]3[NH]2)[O]C1=O` [oxaliplatin]: the IC50 in the series on MDCK-hOCT1 cells (SAR study Table 4, 7 hours of drug exposure, read-out: IC50 MDCK-hOCT1) worked out at 480 ± 190 nM; in the series with MDCK-hOCT1 cells (co-incubation with disopyramide 150 μM, read-out: IC50 in MDCK-hOCT1, disopyramide-treated) it was 22800 ± 10500 nM; with MDCK-hOCT1 cells (disopyramide study (FIG. 2D), without disopyramide, read-out: IC50 in MDCK-hOCT1, control), 3790 ± 1570 nM; with MDCK-hOCT1 cells (drug exposure 7 hour, MTT at 72 hours, Table 1, read-out: IC50 MDCK-hOCT1), 3890 ± 1300 nM; in the series with MDCK-hOCT1 cells (drug exposure 24 hour, MTT at 72 hours, Table 1, read-out: IC50 MDCK-hOCT1) it was 1790 ± 580 nM; in the series on MDCK-hOCT1 cells (drug exposure 72 hour, Table 1, read-out: IC50 MDCK-hOCT1), 1680 ± 270 nM. Besides, the IC50 with HEK-hOCT3 cells (drug exposure 7 hour) is 2220 ± 410 nM; in the series on HEK-hOCT3 cells (drug exposure 24 hour), 620 ± 190 nM; with HEK-hOCT3 cells (drug exposure 72 hour) it was 690 ± 190 nM; in the series on DLD (absence of cimetidine, read-out: IC50 Control), 10600 ± 5990 nM; with DLD (cimetidine 1.5 mM, read-out: IC50 Cimetidine-treated) it was 71300 ± 12900 nM; in the series with HCT116 (HCT116, absence of cimetidine, read-out: IC50 Control) it was 2370 ± 1440 nM. Also, the IC50 stood at 18800 ± 6190 nM with HCT116 (HCT116, cimetidine 1.5 mM, read-out: IC50 Cimetidine-treated); 9500 ± 2950 nM in the series on HEK-MOCK cells [1] (co-incubation with cimetidine 1.5 mM, read-out: IC50 in HEK-MOCK, cimetidine-treated); 2990 ± 1510 nM with HEK-MOCK cells [1] (drug exposure 7 hour, Table 2, read-out: IC50 HEK-MOCK); 1500 ± 690 nM in the series with HEK-MOCK cells [1] (drug exposure 24 hour, Table 2, read-out: IC50 HEK-MOCK); 930 ± 56 nM with HEK-MOCK cells [1] (drug exposure 72 hour, Table 2, read-out: IC50 HEK-MOCK). The “effect of cimetidine on platinum accumulation / cellular uptake in HEK-MOCK” value with HEK-MOCK cells [2] was “significant decrease”. Further, the “cellular platinum accumulation rate in HEK-hOCT2, cimetidine” value in the series on HEK-hOCT2 cells (0.3 μM, cimetidine 1.5 mM) was determined as 1.80±0.13 pmol/mg protein-hr. Moreover, the “cellular platinum accumulation rate in HEK-hOCT2” value with HEK-hOCT2 cells (drug 0.3 μM) is 20.2±1.54 pmol/mg protein-hr.

The IC50 is the point on the concentration scale where inhibition reaches its midpoint.
